# The source made the active and inactive calls. No cut-off for these calls is given here.
# Columns and labels:
# Aspergillus fumigatus [1] = test: Antifungal activity against Aspergillus fumigatus MTCC 343 assessed as zone of inhibition at 100 ug/well measured after 48 hrs by agar well diffusion method; assay type: functional; conditions: MTCC 343, 48 h, read-out: DIZ
# Candida albicans [2] = test: Antifungal activity against Candida albicans MTCC 3017 assessed as zone of inhibition at 100 ug/well measured after 48 hrs by agar well diffusion method; assay type: functional; conditions: MTCC 3017, 48 h, read-out: DIZ
# Staphylococcus aureus [3] = test: Antibacterial activity against Staphylococcus aureus MTCC 3160 assessed as zone of inhibition at 100 ug/well measured after 24 hrs by agar well diffusion method; assay type: functional; conditions: MTCC 3160, 24 h, read-out: DIZ
# Streptococcus mutans [4] = test: Antibacterial activity against Streptococcus mutans MTCC 497 assessed as zone of inhibition at 100 ug/well measured after 24 hrs by agar well diffusion method; assay type: functional; conditions: MTCC 497, 24 h, read-out: DIZ
# Candida albicans [5] = test: Antifungal activity against Candida albicans MTCC 3017 measured after 48 hrs by NCCL protocol based broth dilution method; assay type: functional; conditions: MTCC 3017, 48 h
# Klebsiella pneumoniae [6] = test: Antibacterial activity against Klebsiella pneumoniae MTCC 3384 measured after 24 hrs by NCCL protocol based broth dilution method; assay type: functional
# Aspergillus fumigatus [7] = test: Antifungal activity against Aspergillus fumigatus MTCC 343 measured after 48 hrs by NCCL protocol based broth dilution method; assay type: functional
# Salmonella typhi [8] = test: Antibacterial activity against Salmonella typhi measured after 24 hrs by NCCL protocol based broth dilution method; assay type: functional, Salmonella enterica subsp. enterica serovar Typhi
# Salmonella paratyphi [9] = test: Antibacterial activity against Salmonella paratyphi assessed as zone of inhibition at 100 ug/well measured after 24 hrs by agar well diffusion method; assay type: functional, Salmonella enterica subsp. enterica serovar Paratyphi A; conditions: Salmonella enterica, read-out: DIZ
# Micrococcus luteus [10] = test: Antibacterial activity against Micrococcus luteus MTCC 106 assessed as zone of inhibition at 100 ug/well measured after 24 hrs by agar well diffusion method; assay type: functional; conditions: MTCC 106, 24 h, read-out: DIZ
# Micrococcus luteus [11] = test: Antibacterial activity against Micrococcus luteus MTCC 106 measured after 24 hrs by NCCL protocol based broth dilution method; assay type: functional; conditions: MTCC 106, 24 h
# Salmonella typhi [12] = test: Antibacterial activity against Salmonella typhi assessed as zone of inhibition at 100 ug/well measured after 24 hrs by agar well diffusion method; assay type: functional, Salmonella enterica subsp. enterica serovar Typhi; conditions: Salmonella enterica, read-out: DIZ
# Streptococcus mutans [13] = test: Antibacterial activity against Streptococcus mutans MTCC 497 measured after 24 hrs by NCCL protocol based broth dilution method; assay type: functional; conditions: MTCC 497, 24 h
# Klebsiella pneumoniae [14] = test: Antibacterial activity against Klebsiella pneumoniae MTCC 3384 assessed as zone of inhibition at 100 ug/well measured after 24 hrs by agar well diffusion method; assay type: functional; conditions: MTCC 3384, 24 h, read-out: DIZ
# Salmonella paratyphi [15] = test: Antibacterial activity against Salmonella paratyphi measured after 24 hrs by NCCL protocol based broth dilution method; assay type: functional, Salmonella enterica subsp. enterica serovar Paratyphi A
# Staphylococcus aureus [16] = test: Antibacterial activity against Staphylococcus aureus MTCC 3160 measured after 24 hrs by NCCL protocol based broth dilution method; assay type: functional; conditions: MTCC 3160, 24 h
# [17] = Salmonella enterica subsp. enterica serovar Typhi
# [18] = Salmonella enterica subsp. enterica serovar Paratyphi A
Compound,zone of inhibition at 100 µg/disc (Aspergillus fumigatus [1]) [mm],zone of inhibition at 100 µg/disc (Candida albicans [2]) [mm],zone of inhibition at 100 µg/disc (Staphylococcus aureus [3]) [mm],zone of inhibition at 100 µg/disc (Streptococcus mutans [4]) [mm],MIC (Candida albicans [5]) [mg/L],"MIC (Klebsiella pneumoniae [6]; MTCC 3384, 24 h) [mg/L]","MIC (Aspergillus fumigatus [7]; MTCC 343, 48 h) [mg/L]",MIC (Salmonella typhi [8]; Salmonella enterica) [mg/L],zone of inhibition at 100 µg/disc (Salmonella paratyphi [9]) [mm],zone of inhibition at 100 µg/disc (Micrococcus luteus [10]) [mm],MIC (Micrococcus luteus [11]) [mg/L],zone of inhibition at 100 µg/disc (Salmonella typhi [12]) [mm],MIC (Streptococcus mutans [13]) [mg/L],zone of inhibition at 100 µg/disc (Klebsiella pneumoniae [14]) [mm],MIC (Salmonella paratyphi [15]; Salmonella enterica) [mg/L],MIC (Staphylococcus aureus [16]) [mg/L],MIC (Klebsiella pneumoniae [6]),MIC (Aspergillus fumigatus [7]),MIC (Salmonella typhi [8]; [17]),MIC (Salmonella paratyphi [15]; [18])
CC(C)c1ccc(/N=C/c2cccc(B3OC[C@H]4O[C@@H]5OC(C)(C)O[C@@H]5[C@H]4O3)c2)cc1,0,16,13,16,250,125,500,62.5,21,12,250,23,125,16,125,250,,,,
CC1(C)O[C@H]2O[C@@H]3COB(c4ccc(/C=N/c5ccc(Br)cc5)cc4)O[C@@H]3[C@H]2O1,16,19,15,17,62.5,62.5,125,62.5,24,13,250,22,62.5,17,15.6,125,,,,
CC1(C)O[C@H]2O[C@@H]3COC(c4cccc(/C=N/c5ccc(F)cc5)c4)O[C@@H]3[C@H]2O1 (stereo partly specified),0,6,7,6,500,,,,0,0,500,0,250,0,,500,inactive,inactive,inactive,inactive
COc1ccc(/N=C/c2ccc(B3OC[C@H]4O[C@@H]5OC(C)(C)O[C@@H]5[C@H]4O3)cc2)cc1,0,17,11,12,125,125,500,125,13,11,250,19,250,18,250,500,,,,
CCOc1cccc(/C=N/c2cccc(B3OC[C@H]4O[C@@H]5OC(C)(C)O[C@@H]5[C@H]4O3)c2)c1O,21,18,0,16,62.5,125,62.5,31.2,14,15,125,24,125,12,250,250,,,,
CC1(C)O[C@H]2O[C@@H]3COC(c4ccc(/C=N\c5ccc(F)cc5)cc4)O[C@@H]3[C@H]2O1 (stereo partly specified),0,6,8,6,500,,,,0,0,500,0,250,0,,500,inactive,inactive,inactive,inactive
